Experimental data published in patent publication US4851387A, “5-substituted amino-4-hydroxy-pentanoic acid derivatives and their use” (Banyu Pharmaceutical Co., Ltd., priority 1986, dated 1989).
pIC50: −log10 of the molar value.

Biological target: T1, renin (human plasma) (Homo sapiens, UniProt P00797)
T1 construct: from tissue; host or cells: human plasma
T1 sequence (P00797 67-406): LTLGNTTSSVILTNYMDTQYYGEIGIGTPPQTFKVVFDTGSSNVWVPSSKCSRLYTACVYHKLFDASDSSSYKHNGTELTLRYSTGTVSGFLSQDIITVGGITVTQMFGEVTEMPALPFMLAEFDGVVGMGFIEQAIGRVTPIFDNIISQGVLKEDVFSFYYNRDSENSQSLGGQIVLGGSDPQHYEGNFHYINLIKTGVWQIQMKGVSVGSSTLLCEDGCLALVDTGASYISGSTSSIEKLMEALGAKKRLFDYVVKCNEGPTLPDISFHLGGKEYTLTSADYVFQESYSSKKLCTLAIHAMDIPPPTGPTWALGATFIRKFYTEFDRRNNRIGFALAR
Assay: Test example for renin inhibiting activities: angiotensin I formation in human plasma, measured by radio immunoassay
Type: biochemical
Settings: 0.2M sodium phosphate buffer pH7.4, 37° C. for one hour, read-out: IC50 (mol), 50% inhibition concentration of renin inhibiting activity
Description: To 156 μl of a 0.2M sodium phosphate buffer solution (pH7.4), 40 μl of a solution mixture of 34 mM 8-hydroxyquinoline and 100 mM disodium ethylenediaminetetraacetate, 4 μl of dimethyl sulfoxide or a dimethyl sulfoxide solution of an inhibitor and 200 μl of human plasma were added and reacted at 37° C. for one hour. Then, pepstatin was added thereto to terminate the reaction, and the amount of the resulting angiotension I was measured by radio immunoassay whereby the inhibiting activity was determined.

`CCCCC(NC(=O)C(Cc1cccc2ccccc12)NC(=O)OCc1ccccc1)C(=O)N[C@@H](CC(C)C)[C@@H](O)CC(CCCO)C(=O)NCC(C)C` (mixture of isomers) [Example 14(8), (2RS,4S,5S)-5-(L-N-benzyloxycarbonylnaphthylalanyl-L-norleucyl)amino-4-hydroxy-2-(3-hydroxypropyl)-7-methyl-octanoic acid isobutylamide] showed a pIC50 of 8.30.
`CCCCC(NC(=O)C(Cc1cccc2ccccc12)NC(=O)OCc1ccccc1)C(=O)N[C@@H](CC(C)C)[C@@H](O)CC(C(=O)NCC(C)C)C(C)C` (mixture of isomers) [comparative compound, (2RS,4S,5S)-5-(L-N-benzyloxycarbonyl-naphthylalanyl-L-norleucyl)amino-4-hydroxy-2-isopropyl-7-methyl-octanoic acid isobutylamide, reference compound] was tested, and the pIC50 was 7.40.
For “(2RS,4S,5S)-5-(L-N-benzyloxycarbonylnaphthylalanyl-L-norleucyl)amino-4-hydroxy-2-(2-hydroxyethyl)-7-methyloctanoic acid isobutylamide [Example 15(3)]”, the pIC50 was 8.15.
